From US20230159445A1, “STAT INHIBITORY COMPOUNDS AND COMPOSITIONS” (JANPIX LIMITED, priority 2020, published 2023)

Assays:
MV4-11 cells = assay: MV4-11 Cell Cytotoxicity Assay (CellTiter-Blue, 72 h); type: cell-based, human; settings: Homo sapiens, MV4-11; MV-4-11 cells
Method in brief: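 Cells seeded 24 h before treatment, then exposed 72 h at 37° C, 5% CO2 to inhibitors in triplicate, top concentration 50 μM with 1:2 serial dilutions (0.5% DMSO vehicle). Viability read by CellTiter-Blue fluorescence at 560/590 nm after 1 h.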

[1] = system: normal human fibroblast (NHF) cells; assay: NHF Cell Cytotoxicity Assay (CellTiter-Blue, 72 h), off-target effects; type: cell-based; settings: Homo sapiens, Fibroblast; pooled NHF cells
Experimental: In some embodiments, the off-target effects of the compounds are evaluated in healthy human cells, such as in a normal human fibroblast (NHF) cell cytotoxicity assay.
Cell viability was examined following treatment at various concentrations of inhibitor (0.097656-50 μM) using a cell Titer-Blue cell viability assay. 1×10^4 normal human fibroblast cells per well were plated in 96-well assay plates in culture medium. All cells are grown in DMEM, IMDM and RPMI-1640 were supplemented with 10% FBS. After 24 hours, test compounds and vehicle controls are added to appropriate wells so the final volume was 100 μl in each well. The cells are cultured for the desired test exposure period (72 hours) at 37° C. and 5% CO2. The assay plates are removed from 37° C. incubator and 20 μL/well of CellTiter-Blue® Reagent is added. The plates are incubated using standard cell culture conditions for 1-4 hours and the plates are shaken for 10 seconds and record fluorescence at 560/590nm. For each sample well, value is normalized between the DMSO control and the highest concentration in case of plateau, and converted into a percentage. In the absence of plateau, minimum lecture is obtained from a different sample within the same experiment. For each concentration, the four replicates are averaged and standard deviation calculated. Data is fitted to a log(inhibitor) vs response curve with variable slope model using Microsoft Excel, obtaining IC50 and Hill slope variables.
A person skilled in the art would appreciate that a higher IC50 value in this NHF assay can indicate lower off-target effects.

glutathione (GSH) = assay: Reactivity Profiling with Glutathione (GSH), half-life by HPLC; settings: 5 mM glutathione (GSH) in IMDM with 10% FBS
Experimental: 3.5 μL of 5 mM stocking solution of the inhibitors in DMSO was added to 697.5 μL of Iscove's Modified Dulbecco's Medium (IMDM) supplemented with 10% FBS and antibiotic antimycotic solution, with 5 mM glutathione to afford a final concentration of 25 μM inhibitor with 0.5% DMSO. The solution was then immediately placed in the sample tray at 25° C. […] For each inhibitor, its peak is integrated at different time points and compared to the time zero injection in order to obtain a percentage remaining. Half-life is calculated according to a first order reaction kinetic taking into account those time points for which remaining percentage of inhibitor is above 40%, using the formula: t½=Ln(2)/k, where k is the slope of the linear plot of Ln[Inhibitor] vs time, according to the formula: Ln[A]=Ln[A]0−kt, where [A] is the value resulting from the integration at each time point, [A]0 the value at time zero, and t the time. For each inhibitor, both replicates are averaged and the resulting t½ reported.

half-life at 25 μM (glutathione (GSH)) [h]	SMILES	IC50 (MV4-11 cells) [nM]	IC50 [1] [nM]
2.37 to 4.12	CC(C)(C)c1cc(CN(C(=O)CCN(Cc2ccc(Cl)cc2)S(=O)(=O)c2c(F)c(F)c(F)c(F)c2F)c2ccc(C(=O)O)c(O)c2)cc(C2CC2)c1 [Compound 1052, 4-(N-(3-(tert-butyl)-5-cyclopropylbenzyl)-3-(N-(4-chlorobenzyl)-(2,3,4,5,6-pentafluorophenyl)sulfon-amido)propanamido)-2-hydroxybenzoic acid]	3160 to 100000	
0.00167 to 2.37	CC(C)(C)c1cc(CN(C(=O)CN(C2CC2)S(=O)(=O)c2c(F)c(F)c(F)c(F)c2F)c2ccc(C(=O)O)cc2OC2CC2)cc(C2CC2)c1 [Compound 1100, 4-(N-(3-(tert-butyl)-5-cyclopropylbenzyl)-2-(N-cyclopropyl-(2,3,4,5,6-pentafluorophenyl)sulfon-amido)acetamido)-3-cyclopropoxybenzoic acid]	316 to 1000	
9.23 to 1670	Cc1cc(C(=O)O)ccc1N(Cc1cc(C2CC2)cc(C(C)(C)C)c1)C(=O)CN(Cc1ccccc1C(F)(F)F)S(=O)(=O)c1c(F)c(F)c(F)c(F)c1F [Compound 1089, 4-(N-(3-(tert-butyl)-5-cyclopropylbenzyl)-2-(N-(2-(trifluoromethyl)benzyl)-(2,3,4,5,6-pentafluoro-phenyl)sulfonamido)acetamido)-3-methylbenzoic acid]	316 to 1000	
0.00167 to 2.37	COc1cc(C(=O)O)ccc1N(Cc1cccc(C(C)(C)C)c1)C(=O)CN(Cc1c(F)cc(F)cc1F)S(=O)(=O)c1c(F)c(F)c(F)c(F)c1F [Compound 1150, 4-(N-(3-(tert-butyl)benzyl)-2-(N-(2,4,6-trifluorobenzyl)-(2,3,4,5,6-pentafluoro-phenyl)sulfonamido)acetamido)-3-methoxybenzoic acid]	0.01 to 316	
2.37 to 4.12	COc1ccccc1CN(CC(=O)N(Cc1cc(C2CC2)cc(C(C)(C)C)c1)c1ccc(C(=O)O)c(O)c1)S(=O)(=O)c1c(F)c(F)c(F)c(F)c1F [Compound 1037, 4-(N-(3-(tert-butyl)-5-cyclopropylbenzyl)-2-(N-(2-methoxybenzyl)-(2,3,4,5,6-pentafluoro-phenyl)sulfonamido)acetamido)-2-hydroxybenzoic acid]	1000 to 3160	
0.00167 to 2.37	COc1cc(C(=O)O)ccc1N(Cc1cc(C2CC2)cc(C(C)(C)C)c1)C(=O)CN(C12CC(C1)C2)S(=O)(=O)c1c(F)c(F)c(F)c(F)c1F [Compound 1152, 4-(2-(N-(bicyclo[1.1.1]pentan-1-yl)-(2,3,4,5,6-pentafluorophenyl)sulfon-amido)-N-(3-(tert-butyl)-5-cyclopropylbenzyl)acetamido)-3-methoxybenzoic acid]	1000 to 3160	
0.00167 to 2.37	COc1cc(C(=O)O)ccc1N(Cc1cc(C2CC2)cc(C(C)(C)C)c1)C(=O)CN(Cc1cccc(C(F)(F)F)n1)S(=O)(=O)c1c(F)c(F)c(F)c(F)c1F [Compound 1118, 4-(N-(3-(tert-butyl)-5-cyclopropylbenzyl)-2-(N-((6-(trifluoromethyl)pyridin-2-yl)methyl)-(2,3,4,5,6-pentafluoro-phenyl)sulfonamido)acetamido)-3-methoxybenzoic acid]	316 to 1000	
4.12 to 9.23	CN(C)c1cc(C(=O)O)c(F)cc1N(Cc1cc(C2CC2)cc(C(C)(C)C)c1)C(=O)CN(Cc1ccccc1F)S(=O)(=O)c1c(F)c(F)c(F)c(F)c1F [Compound 1060, 4-(N-(3-(tert-butyl)-5-cyclopropylbenzyl)-2-(N-(2-fluorobenzyl)-(2,3,4,5,6-pentafluoro-phenyl)sulfonamido)acetamido)-5-(dimethylamino)-2-fluorobenzoic acid]	0.01 to 316	
0.00167 to 2.37	COc1cc(C(=O)O)ccc1N(Cc1cc(C2CC2)cc(C(C)(C)C)c1)C(=O)CN(Cc1ccc(F)cn1)S(=O)(=O)c1c(F)c(F)c(F)c(F)c1F [Compound 1085, 4-(N-(3-(tert-butyl)-5-cyclopropylbenzyl)-2-(N-((5-fluoropyridin-2-yl)methyl)-(2,3,4,5,6-pentafluoro-phenyl)sulfonamido)acetamido)-3-methoxybenzoic acid]	316 to 1000	
9.23 to 1670	CN(C)c1ccccc1CN(CC(=O)N(Cc1cc(C2CC2)cc(C(C)(C)C)c1)c1ccc(C(=O)O)cc1OC1CC1)S(=O)(=O)c1c(F)c(F)c(F)c(F)c1F [Compound 1236, 4-(N-(3-(tert-butyl)-5-cyclopropylbenzyl)-2-(N-(2-(dimethylamino)benzyl)-(2,3,4,5,6-pentafluorophenyl)sulfon-amido)acetamido)-3-cyclopropoxybenzoic acid]	316 to 1000	
0.00167 to 2.37	CC(C)(C)c1cc(CN(C(=O)CN(Cc2ccccc2F)S(=O)(=O)c2c(F)c(F)c(F)c(F)c2F)c2ccc(C(=O)O)c(N)c2)cc(C2CC2)c1 [Compound 1070, 2-amino-4-(N-(3-(tert-butyl)-5-cyclopropylbenzyl)-2-(N-(2-fluorobenzyl)-(2,3,4,5,6-pentafluoro-phenyl)sulfonamido)acetamido)benzoic acid]	316 to 1000	
0.00167 to 2.37	COc1cc(C(=O)O)ccc1N(Cc1cc(C2CC2)cc(C(C)(C)C)c1)C(=O)CN(Cc1ccc(F)nc1F)S(=O)(=O)c1c(F)c(F)c(F)c(F)c1F [Compound 1095, 4-(N-(3-(tert-butyl)-5-cyclopropylbenzyl)-2-(N-((2,6-difluoropyridin-3-yl)methyl)-(2,3,4,5,6-pentafluorophenyl)sulfon-amido)acetamido)-3-methoxybenzoic acid]	0.01 to 316	

Second part, the molecule before the results:

SMILES	half-life at 25 μM (glutathione (GSH)) [h]	IC50 (MV4-11 cells) [nM]	IC50 [1] [nM]
Cc1cc(C(=O)O)cc(C)c1N(Cc1cc(C2CC2)cc(C2CC2)c1)C(=O)CN(Cc1c(F)c(F)c(F)c(F)c1F)S(=O)(=O)c1c(F)c(F)c(F)c(F)c1F [Compound 1204, 4-(N-(3,5-dicyclopropylbenzyl)-2-(N-((perfluorophenyl)methyl)-(2,3,4,5,6-pentafluoro-phenyl)sulfonamido)acetamido)-3,5-dimethylbenzoic acid]		316 to 1000	1 to 10000
Cc1cc(C(=O)O)cc(C)c1N(Cc1cc(C2CC2)cc(C2CC2)c1)C(=O)CN(Cc1ccc(F)cc1Cl)S(=O)(=O)c1c(F)c(F)c(F)c(F)c1F [Compound 1188, 4-(2-(N-(2-chloro-4-fluorobenzyl)-(2,3,4,5,6-pentafluorophenyl)sulfon-amido)-N-(3,5-dicyclopropylbenzyl)acetamido)-3,5-dimethylbenzoic acid]		316 to 1000	1 to 10000
O=C(O)c1ccc(N(Cc2cc(C3CC3)cc(C3CC3)c2)C(=O)CN(Cc2ccc(F)cc2Cl)S(=O)(=O)c2c(F)c(F)c(F)c(F)c2F)c(N2CCCC2)c1 [Compound 1240, 4-(2-(N-(2-chloro-4-fluorobenzyl)-(2,3,4,5,6-pentafluorophenyl)sulfon-amido)-N-(3,5-dicyclopropylbenzyl)acetamido)-3-(pyrrolidin-1-yl)benzoic acid]		0.01 to 316	10000 to 20000
O=C(O)c1ccc(N(Cc2cc(C3CC3)cc(C3CC3)c2)C(=O)CN(Cc2ccc(F)cc2Cl)S(=O)(=O)c2c(F)c(F)c(F)c(F)c2F)c(OC2CCSC2)c1 (stereo not drawn) [Compound 1264, 4-(2-(N-(2-chloro-4-fluorobenzyl)-(2,3,4,5,6-pentafluorophenyl)sulfon-amido)-N-(3,5-dicyclopropylbenzyl)acetamido)-3-((tetrahydrothiophen-3-yl)oxy)benzoic acid]			10000 to 20000
CC(C)c1cc(C(=O)O)ccc1N(Cc1cc(C2CC2)cc(C2CC2)c1)C(=O)CN(Cc1ccc(F)cc1Cl)S(=O)(=O)c1c(F)c(F)c(F)c(F)c1F [Compound 1244, 4-(2-(N-(2-chloro-4-fluorobenzyl)-(2,3,4,5,6-pentafluorophenyl)sulfon-amido)-N-(3,5-dicyclopropylbenzyl)acetamido)-3-isopropylbenzoic acid]			10000 to 20000
CC(C)(C)c1cc(CN(C(=O)CN(Cc2ccccc2C#N)S(=O)(=O)c2c(F)c(F)c(F)c(F)c2F)c2ccc(C(=O)O)cc2OC2CC2)cc(C2CC2)c1 [Compound 1224, 4-(N-(3-(tert-butyl)-5-cyclopropylbenzyl)-2-(N-(2-cyanobenzyl)-(2,3,4,5,6-pentafluorophenyl)sulfon-amido)acetamido)-3-cyclopropoxybenzoic acid]			1 to 10000
CCc1cc(C(=O)O)ccc1N(Cc1cc(C2CC2)cc(C2CC2)c1)C(=O)CN(Cc1ccc(F)cc1Cl)S(=O)(=O)c1c(F)c(F)c(F)c(F)c1F [Compound 1243, 4-(2-(N-(2-chloro-4-fluorobenzyl)-(2,3,4,5,6-pentafluorophenyl)sulfon-amido)-N-(3,5-dicyclopropylbenzyl)acetamido)-3-ethylbenzoic acid]			10000 to 20000
O=C(O)c1ccc(N(Cc2cc(C3CC3)cc(C3CC3)c2)C(=O)CN(Cc2cnccc2C(F)(F)F)S(=O)(=O)c2c(F)c(F)c(F)c(F)c2F)c(OC2CC2)c1 [Compound 1163, 3-cyclopropoxy-4-(N-(3,5-dicyclopropylbenzyl)-2-(N-((4-(trifluoromethyl)pyridin-3-yl)methyl)-(2,3,4,5,6-pentafluoro-phenyl)sulfonamido)acetamido)benzoic acid]	2.37 to 4.12	0.01 to 316	
